Columns and labels:
[1] = set-up: method as in Husted et al., 2006; conditions: humans, 100 mg b.i.d.; ref Husted et al., 2006; cited from earlier work
[2] = target: T1, CYP2C8 (Homo sapiens, UniProt P10632); test: CYP2C8 inhibition in HLM (amodiaquine N-deethylase); type: in vitro ADME; conditions: HLM 0.2 mg/ml
T1 construct: co-incubation ticagrelor-O-Glu with selective P450 probe substrates in HLM; tissue XenoTech LLC; host or cells: pooled human liver microsomes
Method: (§1) The potential inhibitory effects of ticagrelor-O-Glu on the activities of major CYPs, i.e., CYP2B6, CYP2C8, CYP2C9, CYP2C19, CYP2D6, and CYP3A4, were evaluated by co-incubation ticagrelor-O-Glu with selective P450 probe substrates in HLM. Each incubation mixture containing 0.2 mg/ml HLM, ticagrelor-O-Glu and respective substrate (the final substrate concentrations are close to or less than the Km values: 150 μM bupropion, 1.26 μM amodiaquine, 10 μM diclofenac, 20 μM mephenytoin, 20 μM dextromethorphan and 80 μM testosterone (in house data)) in potassium phosphate buffer (100 mM, pH 7.4) was pre-incubated at 37°C for 5 min. Then, NADPH (10 mM) was added to initiate the reaction. The final volume of the incubation mixture was 100 μl. After incubation at 37°C for specific time points, the reaction was terminated by the addition of 200 μl of ice-cold methanol solution with internal standards (diazepam and furafylline). […] The formation of respective metabolites was determined to reflect P450 isoform activities. The metabolites quantified for CYP2B6, CYP2C8, CYP2C9, CYP2C19, CYP2D6, and CYP3A4 were hydroxy bupropion, N-Desethyl amodiaquine, 4′-hydroxylation diclofenac, S-4-hydroxy mephenytoin, dextrorphan and 6β-hydroxy testosterone, respectively.
(§2) The percent inhibition relative to the control was calculated to indicate the UGTs or CYPs inhibition. […]

[3] = target: T2, CYP2D6 (Homo sapiens, UniProt P10635); test: CYP2D6 inhibition in HLM (dextromethorphan O-demethylase); type: in vitro ADME; conditions: HLM 0.2 mg/ml
T2 construct: co-incubation ticagrelor-O-Glu with selective P450 probe substrates in HLM; tissue XenoTech LLC; host or cells: pooled human liver microsomes
T2 sequence (P10635 whole entry): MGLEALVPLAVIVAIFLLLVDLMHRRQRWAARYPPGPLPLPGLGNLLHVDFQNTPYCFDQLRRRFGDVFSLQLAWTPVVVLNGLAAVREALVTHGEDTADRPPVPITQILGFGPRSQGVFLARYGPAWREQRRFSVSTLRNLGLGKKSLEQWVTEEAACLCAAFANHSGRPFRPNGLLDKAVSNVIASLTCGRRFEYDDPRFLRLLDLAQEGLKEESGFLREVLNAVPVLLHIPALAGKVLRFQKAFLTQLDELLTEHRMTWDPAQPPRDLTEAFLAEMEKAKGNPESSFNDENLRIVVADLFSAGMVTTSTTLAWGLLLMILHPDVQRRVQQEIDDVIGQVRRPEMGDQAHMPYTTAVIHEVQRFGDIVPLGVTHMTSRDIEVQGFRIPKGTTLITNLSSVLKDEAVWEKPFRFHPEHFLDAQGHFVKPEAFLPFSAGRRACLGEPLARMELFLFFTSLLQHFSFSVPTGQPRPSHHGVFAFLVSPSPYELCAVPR
Method: as §1, §2

T1 sequence (P10632 whole entry): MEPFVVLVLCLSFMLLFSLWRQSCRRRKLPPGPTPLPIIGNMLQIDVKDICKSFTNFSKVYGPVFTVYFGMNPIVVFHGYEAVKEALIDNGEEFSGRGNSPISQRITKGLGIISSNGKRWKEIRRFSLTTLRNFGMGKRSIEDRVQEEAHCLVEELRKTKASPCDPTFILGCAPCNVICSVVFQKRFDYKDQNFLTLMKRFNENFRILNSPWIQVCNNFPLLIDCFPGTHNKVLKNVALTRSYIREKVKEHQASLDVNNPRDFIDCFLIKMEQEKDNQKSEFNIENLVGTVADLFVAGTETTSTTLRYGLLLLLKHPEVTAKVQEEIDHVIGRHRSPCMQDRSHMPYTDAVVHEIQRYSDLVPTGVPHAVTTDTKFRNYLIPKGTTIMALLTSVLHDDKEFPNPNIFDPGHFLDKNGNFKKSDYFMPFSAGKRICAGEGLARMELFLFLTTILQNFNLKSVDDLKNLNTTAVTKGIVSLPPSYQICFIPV

IC50 [2] [µM]	IC50 [3] [µM]	Compound	steady-state maximal plasma concentration (Cmax) [1] [ng/mL]
–	–	CCCSc1nc(N[C@@H]2C[C@H]2c2ccc(F)c(F)c2)c2nnn([C@@H]3C[C@H](OCCO)[C@@H](O)[C@H]3O)c2n1 [Ticagrelor]	810
> 100	> 100	CCCSc1nc(N[C@@H]2C[C@H]2c2ccc(F)c(F)c2)c2nnn([C@@H]3C[C@H](OCCO[C@@H]4O[C@H](C(=O)O)[C@@H](O)[C@H](O)[C@H]4O)[C@@H](O)[C@H]3O)c2n1 [Ticagrelor-O-Glu, ticagrelor-O-glucuronide]	–

Source: PMC8552062, “Contributions of UDP-Glucuronosyltransferases to Human Hepatic and Intestinal Metabolism of Ticagrelor and Inhibition of UGTs and Cytochrome P450 Enzymes by Ticagrelor and its Glucuronidated Metabolite” (Frontiers in Pharmacology, 2021)
